Test results: patent publication US12281122B1, “PI3K inhibitors” (Cogent Biosciences, Inc., priority 2023, dated 2025)
Blank lines part the entries; values can stand above or below the molecule they belong to.

Tests used:
[1] = tested on: T47D (PI3Kα-H1047R) cell line; test: HTRF phospho-AKT(S473) cell assay in T47D cells; assay type: cell-based, human
Method in brief: (§1)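 pAKT(S473) in lysates read by HTRF after a 2 h, 37 °C compound exposure (12-point 1:3 series, max 0.5% DMSO). SKBR3 (wild type, top 10 μM) received 70 ng/ml PDGF-BB during the final 15 min; T47D (H1047R, top 5 μM) was unstimulated. IC50 values derived from the dose-response.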

[2] = tested on: SKBR3 (PI3Kα-Wild Type) cell line; test: HTRF phospho-AKT(S473) cell assay in SKBR3 cells; assay type: cell-based, human
Method in brief: as §1

[3] = Homo sapiens; T47D (PI3Kα-H1047R) cells, HTRF phospho-AKT(S473), 2 hours compound incubation
[4] = Homo sapiens, SK-BR-3; SKBR3 (PI3Kα-Wild Type) cells, HTRF phospho-AKT(S473), 2 hours compound incubation, PDGF-BB stimulated
[5] = Homo sapiens; HTRF phospho-AKT(S473), T47D (PI3Kα-H1047R) cells, 2 hours compound incubation
[6] = Homo sapiens, SK-BR-3; HTRF phospho-AKT(S473), SKBR3 (PI3Kα-Wild Type) cells, 2 hours compound incubation, PDGF-BB stimulated

IC50 [1, 3]: < 250 nM
IC50 [2, 4]: ≥ 5000 nM
SMILES: Cc1cc([C@@H](C)Nc2ccc(Cl)nc2C(=O)NS(C)(=O)=O)c2nc(N3C[C@H]4CC(c5ccn(C)n5)C[C@@H]4C3)n(C)c(=O)c2c1 (single isomer, unassigned) [Compound 425, 6-chloro-3-(((R)-1-(3,6-dimethyl-2-((3aS*,6aS*)-5-(1-methyl-1H-pyrazol-3-yl)hexahydrocyclopenta [c]pyrrol-2(1H)-yl)-4-oxo-3,4-dihydroquinazolin-8-yl)ethyl)amino)-N-(methylsulfonyl) picolinamide]

IC50 [1, 3]: < 250 nM
IC50 [2, 4]: 1000 to 5000 nM
SMILES: Cc1cc([C@@H](C)Nc2ccc(Cl)nc2C(=O)NS(=O)(=O)C2COC2)c2nc(N3Cc4ccc(F)cc4C3)n(C)c(=O)c2c1 [Compound 173, (R)-6-chloro-3-((1-(2-(5-fluoroisoindolin-2-yl)-3,6-dimethyl-4-oxo-3,4-dihydroquinazolin-8-yl)ethyl)amino)-N-(oxetan-3-ylsulfonyl)picolinamide]

IC50 [1, 3]: 250 to 500 nM
IC50 [2, 4]: 1000 to 5000 nM
SMILES: Cc1cc([C@@H](C)Nc2ccc(Cl)nc2C(=O)NS(C)(=O)=O)c2nc(N3C[C@@H]4[C@H](C3)[C@H]4c3ccnn3C)n(C)c(=O)c2c1 [Compound 296, 6-chloro-3-(((R)-1-(3,6-dimethyl-2-((1R,5S,6R)-6-(1-methyl-1H-pyrazol-5-yl)-3-azabicyclo[3.1.0]hexan-3-yl)-4-oxo-3,4-dihydroquinazolin-8-yl)ethyl)amino)-N-(methylsulfonyl) picolinamide]

IC50 [1, 5]: 250 to 500 nM
IC50 [2, 6]: ≥ 5000 nM
SMILES: Cc1cc([C@@H](C)Nc2ccc(Cl)nc2C(=O)NS(C)(=O)=O)c2nc(N3CCC4(CCc5cn(C)nc54)CC3)n(C)c(=O)c2c1 [Compound 673, (R)-6-chloro-3-((1-(3,6-dimethyl-2-(2-methyl-4,5-dihydro-2H-spiro [cyclopenta[c]pyrazole-6,4′-piperidin]-1′-yl)-4-oxo-3,4-dihydroquinazolin-8-yl)ethyl)amino)-N-(methylsulfonyl) picolinamide]

IC50 [1, 5]: 250 to 500 nM
IC50 [2, 6]: 1000 to 5000 nM
SMILES: COc1ccc(N2CCN(c3nc4c([C@@H](C)Nc5ccc(Cl)nc5C(=O)NS(C)(=O)=O)cc(C)cc4c(=O)n3C)CC2)cn1 [Compound 635, (R)-6-chloro-3-((1-(2-(4-(6-methoxypyridin-3-yl)piperazin-1-yl)-3,6-dimethyl-4-oxo-3,4-dihydroquinazolin-8-yl)ethyl)amino)-N-(methylsulfonyl) picolinamide]

IC50 [1, 5]: 250 to 500 nM
IC50 [2, 6]: 1000 to 5000 nM
SMILES: Cc1cc([C@@H](C)Nc2ccc(Cl)nc2C(=O)NS(C)(=O)=O)c2nc(-c3ccc4cn(C)nc4c3)n(C)c(=O)c2c1 [Compound 835, (R)-6-chloro-3-((1-(3,6-dimethyl-2-(2-methyl-2H-indazol-6-yl)-4-oxo-3,4-dihydroquinazolin-8-yl)ethyl)amino)-N-(methylsulfonyl) picolinamide]

The remaining lines, values behind:

SMILES: Cc1cc([C@@H](C)Nc2ccc(Cl)nc2C(=O)NS(C)(=O)=O)c2nc(N3CCC(Oc4ccccn4)CC3)n(C)c(=O)c2c1 [Compound 694, (R)-6-chloro-3-((1-(3,6-dimethyl-4-oxo-2-(4-(pyridin-2-yloxy)piperidin-1-yl)-3,4-dihydroquinazolin-8-yl)ethyl)amino)-N-(methylsulfonyl) picolinamide]
IC50 [1, 5]: 250 to 500 nM
IC50 [2, 6]: ≥ 5000 nM

SMILES: Cc1cc([C@@H](C)Nc2ccc(Cl)nc2C(=O)NS(C)(=O)=O)c2nc(N3CCC(c4ccc(N(C)C)nc4)CC3)n(C)c(=O)c2c1 [Compound 242, (R)-6-chloro-3-((1-(2-(4-(6-(dimethylamino)pyridin-3-yl)piperidin-1-yl)-3,6-dimethyl-4-oxo-3,4-dihydroquinazolin-8-yl)ethyl)amino)-N-(methylsulfonyl) picolinamide]
IC50 [1, 3]: < 250 nM
IC50 [2, 4]: 1000 to 5000 nM

SMILES: Cc1cc([C@@H](C)Nc2ccc(Cl)nc2C(=O)NS(C)(=O)=O)c2nc(-c3ccc4nn(C)cc4c3C)n(C)c(=O)c2c1 [Compound 798, (R)-6-chloro-3-((1-(2-(2,4-dimethyl-2H-indazol-5-yl)-3,6-dimethyl-4-oxo-3,4-dihydroquinazolin-8-yl)ethyl)amino)-N-(methylsulfonyl) picolinamide]
IC50 [1, 5]: < 250 nM
IC50 [2, 6]: 1000 to 5000 nM

SMILES: Cc1cc([C@@H](C)Nc2ccc(Cl)nc2C(=O)NS(C)(=O)=O)c2nc(N3CCC(c4ccnn4C(F)(F)F)CC3)n(C)c(=O)c2c1 [Compound 446, (R)-6-chloro-3-((1-(3,6-dimethyl-4-oxo-2-(4-(1-(trifluoromethyl)-1H-pyrazol-5-yl)piperidin-1-yl)-3,4-dihydroquinazolin-8-yl)ethyl)amino)-N-(methylsulfonyl) picolinamide]
IC50 [1, 5]: 250 to 500 nM
IC50 [2, 6]: ≥ 5000 nM

SMILES: Cc1cc([C@@H](C)Nc2ccc(Cl)nc2C(=O)NS(C)(=O)=O)c2nc(N3C[C@@H]4[C@H](C3)[C@H]4n3ncc(F)c3C)n(C)c(=O)c2c1 [Compound 632, 6-chloro-3-(((R)-1-(2-((1R,5S,6S)-6-(4-fluoro-5-methyl-1H-pyrazol-1-yl)-3-azabicyclo[3.1.0]hexan-3-yl)-3,6-dimethyl-4-oxo-3,4-dihydroquinazolin-8-yl)ethyl)amino)-N-(methylsulfonyl) picolinamide]
IC50 [1, 5]: 250 to 500 nM
IC50 [2, 6]: 1000 to 5000 nM

SMILES: Cc1cc([C@@H](C)Nc2ccc(Cl)nc2C(=O)NS(C)(=O)=O)c2nc(N3C[C@@H]4[C@H](C3)[C@H]4n3nccc3C)n(C)c(=O)c2c1 [Compound 417, 6-chloro-3-(((R)-1-(3,6-dimethyl-2-((1R,5S,6S)-6-(5-methyl-1H-pyrazol-1-yl)-3-azabicyclo[3.1.0]hexan-3-yl)-4-oxo-3,4-dihydroquinazolin-8-yl)ethyl)amino)-N-(methylsulfonyl) picolinamide]
IC50 [1, 3]: < 250 nM
IC50 [2, 4]: 1000 to 5000 nM

SMILES: Cc1cc([C@@H](C)Nc2ccc(Cl)nc2C(=O)NS(C)(=O)=O)c2nc(-c3ccc(O[C@@H]4CCNCC4(F)F)nc3)n(C)c(=O)c2c1 [Compound 333, 6-chloro-3-(((R)-1-(2-(6-(((R)-3,3-difluoropiperidin-4-yl)oxy)pyridin-3-yl)-3,6-dimethyl-4-oxo-3,4-dihydroquinazolin-8-yl)ethyl)amino)-N-(methylsulfonyl) picolinamide]
IC50 [1, 3]: < 250 nM
IC50 [2, 4]: 1000 to 5000 nM

SMILES: Cc1cc([C@@H](C)Nc2ccc(Cl)nc2C(=O)NS(C)(=O)=O)c2nc(-c3ccn4nc(C)nc4c3)n(C)c(=O)c2c1 [Compound 822, (R)-6-chloro-3-((1-(3,6-dimethyl-2-(2-methyl-[1,2,4]triazolo[1,5-a]pyridin-7-yl)-4-oxo-3,4-dihydroquinazolin-8-yl)ethyl)amino)-N-(methylsulfonyl) picolinamide]
IC50 [1, 5]: 250 to 500 nM
IC50 [2, 6]: ≥ 5000 nM

SMILES: Cc1cc([C@@H](C)Nc2ccc(Cl)nc2C(=O)NS(C)(=O)=O)c2nc(N3C[C@@H]4[C@@H](COc5ccnn5C)[C@@H]4C3)n(C)c(=O)c2c1 [Compound 341, 6-chloro-3-(((R)-1-(3,6-dimethyl-2-((1R,5S,6R)-6-(((1-methyl-1H-pyrazol-5-yl)oxy)methyl)-3-azabicyclo[3.1.0]hexan-3-yl)-4-oxo-3,4-dihydroquinazolin-8-yl)ethyl)amino)-N-(methylsulfonyl) picolinamide]
IC50 [1, 3]: < 250 nM
IC50 [2, 4]: 1000 to 5000 nM
